Assays:
[1] = system: SUM149PT; test: Antiproliferative activity against human SUM149PT cells assessed as inhibition of cell growth at 20 uM incubated for 48 hrs by MTT assay relative to control; format: functional
[2] = system: HCC1937; test: Antiproliferative activity against human HCC1937 cells assessed as inhibition of cell growth at 20 uM incubated for 48 hrs by MTT assay relative to control; format: functional
[3] = system: MDA-MB-436; test: Antiproliferative activity against human MDA-MB-436 cells assessed as inhibition of cell growth at 20 uM incubated for 48 hrs by MTT assay relative to control; format: functional
[4] = system: SUM149PT; test: Antiproliferative activity against human SUM149PT cells assessed as inhibition of cell growth incubated for 48 hrs by MTT assay; format: functional, cell-based
[5] = system: HCC1937; test: Antiproliferative activity against human HCC1937 cells assessed as inhibition of cell growth incubated for 48 hrs by MTT assay; format: functional, cell-based; settings: HCC1937, 48 h
[6] = system: CAPAN-1; test: Antiproliferative activity against human CAPAN-1 cells assessed as inhibition of cell growth incubated for 48 hrs by MTT assay; format: functional, cell-based; settings: CAPAN-1, 48 h
[7] = system: HCC1937; test: Antiproliferative activity against human HCC1937 cells assessed as inhibition of cell growth at 5 uM incubated for 48 hrs by MTT assay relative to control; format: functional
[8] = system: CAPAN-1; test: Antiproliferative activity against human CAPAN-1 cells assessed as inhibition of cell growth at 20 uM incubated for 48 hrs by MTT assay relative to control; format: functional
[9] = system: CAPAN-1; test: Antiproliferative activity against human CAPAN-1 cells assessed as inhibition of cell growth at 5 uM incubated for 48 hrs by MTT assay relative to control; format: functional
[10] = system: SUM149PT; test: Antiproliferative activity against human SUM149PT cells assessed as inhibition of cell growth at 5 uM incubated for 48 hrs by MTT assay relative to control; format: functional
[11] = system: SUM149PT; test: Induction of cell cycle arrest in human SUM149PT cells assessed as accumulation of cells at G0/G1 phase at 2 uM incubated for 24 hrs by propidium iodide/RNase A staining based flow cytometry (reference value: 72.8 %); format: functional
[12] = system: SUM149PT; test: Induction of cell cycle arrest in human SUM149PT cells assessed as accumulation of cells at S phase at 2 uM incubated for 24 hrs by propidium iodide/RNase A staining based flow cytometry (reference value: 16.4 %); format: functional
[13] = system: SUM149PT; test: Induction of cell cycle arrest in human SUM149PT cells assessed as accumulation of cells at G2/M phase at 2 uM incubated for 24 hrs by propidium iodide/RNase A staining based flow cytometry (reference value: 5.54 %); format: functional
[14] = system: SUM149PT; test: Induction of cell cycle arrest in human SUM149PT cells assessed as accumulation of cells at G0/G1 phase at 2 uM incubated for 48 hrs by propidium iodide/RNase A staining based flow cytometry (reference value: 69.2 %); format: functional
[15] = system: SUM149PT; test: Induction of cell cycle arrest in human SUM149PT cells assessed as accumulation of cells at S phase at 2 uM incubated for 48 hrs by propidium iodide/RNase A staining based flow cytometry (reference value: 18.7 %); format: functional
[16] = system: SUM149PT; test: Induction of apoptosis in human SUM149PT cells assessed as viable cells at 2 uM incubated for 24 hrs by Annexin V-FITC/PI staining based flow cytometry (reference value: 93.7 %); format: functional; settings: read-out: Activity
[17] = system: SUM149PT; test: Induction of apoptosis in human SUM149PT cells assessed as early apoptotic cells at 2 uM incubated for 24 hrs by Annexin V-FITC/PI staining based flow cytometry (reference value: 2.59 %); format: functional
[18] = system: SUM149PT; test: Induction of apoptosis in human SUM149PT cells assessed as late apoptotic cells at 2 uM incubated for 24 hrs by Annexin V-FITC/PI staining based flow cytometry (reference value: 2.45 %); format: functional
[19] = system: SUM149PT; test: Induction of apoptosis in human SUM149PT cells assessed as necrotic cells at 2 uM incubated for 24 hrs by Annexin V-FITC/PI staining based flow cytometry (reference value: 1.27 %); format: functional
[20] = system: SUM149PT; test: Induction of apoptosis in human SUM149PT cells assessed as viable cells at 2 uM incubated for 48 hrs by Annexin V-FITC/PI staining based flow cytometry (reference value: 96.1 %); format: functional; settings: read-out: Activity
[21] = system: SUM149PT; test: Induction of apoptosis in human SUM149PT cells assessed as early apoptotic cells at 2 uM incubated for 48 hrs by Annexin V-FITC/PI staining based flow cytometry (reference value: 2.28 %); format: functional
[22] = system: SUM149PT; test: Induction of apoptosis in human SUM149PT cells assessed as late apoptotic cells at 2 uM incubated for 48 hrs by Annexin V-FITC/PI staining based flow cytometry (reference value: 1.13 %); format: functional
[23] = system: SUM149PT; test: Induction of apoptosis in human SUM149PT cells assessed as necrotic cells at 2 uM incubated for 48 hrs by Annexin V-FITC/PI staining based flow cytometry (reference value: 0.51 %); format: functional

SMILES | inhibition at 20 µM [1] | inhibition at 20 µM [2] | inhibition at 20 µM [3] | IC50 [4] | IC50 [5] | IC50 [6] | also measured
NC(=O)c1cc(F)cc2cc(-c3ccccc3)c(=O)oc12 | > 60% | > 60% | < 40% | – | – | – | –
COc1ccc(-c2cc3cccc(C(N)=O)c3oc2=O)cc1O | > 60% | > 60% | < 40% | 4.82 µM | 10.6 µM | 15.3 µM | –
COc1ccc(-c2cc3cc(F)cc(C(N)=O)c3oc2=O)cc1OC | > 60% | > 60% | < 40% | 4.09 µM | 3.67 µM | 8.6 µM | –
NC(=O)c1cccc2cc(-c3ccsc3)c(=O)oc12 | > 60% | > 60% | < 40% | – | – | – | –
COc1ccc(-c2cc3cc(F)cc(C(N)=O)c3oc2=O)cc1 | > 60% | > 60% | < 40% | – | – | – | –
COc1cccc(-c2cc3cccc(C(N)=O)c3oc2=O)c1 | > 60% | > 80% | < 40% | 4.93 µM | 0.62 µM | 4.6 µM | inhibition at 5 µM [7]: > 70%; inhibition at 20 µM [8]: > 60%; inhibition at 5 µM [9]: > 50%
COc1ccc(-c2cc3cc(F)cc(C(N)=O)c3oc2=O)cc1O | > 60% | > 60% | < 40% | – | – | – | –
NC(=O)c1cc(F)cc2cc(-c3cccc(O)c3)c(=O)oc12 | > 60% | > 60% | < 40% | – | – | – | –
NC(=O)c1cc(F)cc2cc(-c3ccc(O)cc3)c(=O)oc12 | > 60% | > 60% | < 40% | – | – | – | –
NC(=O)c1cc(F)cc2cc(-c3ccccc3O)c(=O)oc12 | > 60% | > 80% | < 40% | 3.29 µM | 2.94 µM | 11.9 µM | inhibition at 5 µM [7]: > 70%
COc1ccc(-c2cc3cccc(C(N)=O)c3oc2=O)cc1OC | > 60% | > 60% | < 40% | – | – | – | –
NC(=O)c1cccc2cc(-c3cccs3)c(=O)oc12 | > 60% | > 60% | < 40% | – | – | – | –
NC(=O)c1cc(F)cc2cc(-c3ccc4c(c3)CCO4)c(=O)oc12 | > 60% | > 60% | < 40% | 5.11 µM | 3.71 µM | 21.1 µM | –
NC(=O)c1cccc2cc(-c3cccc(O)c3)c(=O)oc12 | > 60% | > 60% | < 40% | – | – | – | –
NC(=O)c1cccc2cc(-c3ccccc3)c(=O)oc12 | > 60% | > 60% | < 40% | – | – | – | inhibition at 20 µM [8]: > 60%; inhibition at 5 µM [9]: > 50%
NC(=O)c1cccc2cc(-c3ccc4c(c3)CCO4)c(=O)oc12 | > 60% | > 60% | < 40% | – | – | – | –
NC(=O)c1cc(F)cc2cc(-c3cccs3)c(=O)oc12 | > 80% | > 80% | < 40% | 0.62 µM | 1.86 µM | 17.2 µM | inhibition at 5 µM [10]: > 70%; inhibition at 5 µM [7]: > 70%
NC(=O)c1cccc2cc(-c3ccc(O)cc3)c(=O)oc12 | > 60% | > 60% | < 40% | 3.14 µM | 10.8 µM | 19.1 µM | –
NC(=O)c1cc(F)cc2cc(-c3ccsc3)c(=O)oc12 | > 60% | > 60% | < 40% | 11.6 µM | 1.9 µM | 20.6 µM | –
COc1cc(-c2cc3cccc(C(N)=O)c3oc2=O)ccc1O | > 60% | > 60% | < 40% | – | – | – | –
COc1cc(-c2cc3cc(F)cc(C(N)=O)c3oc2=O)ccc1O | > 60% | > 60% | < 40% | 3.18 µM | 4.2 µM | 3.16 µM | inhibition at 20 µM [8]: > 60%; inhibition at 5 µM [9]: > 50%
NC(=O)c1cc(F)cc2cc(-c3ccc4c(c3)OCO4)c(=O)oc12 | > 60% | > 60% | < 40% | – | – | – | –
COc1ccc(-c2cc3cccc(C(N)=O)c3oc2=O)cc1 | > 60% | > 60% | < 40% | – | – | – | –
NC(=O)c1cccc2cn(-c3ccc([C@@H]4CCCNC4)cc3)nc12 [NIRAPARIB] | – | – | – | 7.05 µM | – | 10.4 µM | Activity [11]: 54.2%; Activity [12]: 28.4%; Activity [13]: 16.2%; Activity [14]: 32%; Activity [15]: 51.9%; viability at 2 µM [16]: 89.9%; Activity [17]: 1.85%; Activity [18]: 6.34%; Activity [19]: 1.93%; viability at 2 µM [20]: 77.7%; Activity [21]: 11.8%; Activity [22]: 7.18%; Activity [23]: 3.34%
COc1cc(OC)cc(-c2cc3cccc(C(N)=O)c3oc2=O)c1 | > 60% | > 60% | < 40% | – | – | – | –
NC(=O)c1cccc2cc(-c3ccc4c(c3)OCO4)c(=O)oc12 | > 60% | > 60% | < 40% | – | – | – | –
COc1cc(OC)cc(-c2cc3cc(F)cc(C(N)=O)c3oc2=O)c1 | > 60% | > 60% | < 40% | – | – | – | –
NC(=O)c1cccc2cc(-c3ccccc3O)c(=O)oc12 | > 60% | > 60% | < 40% | – | – | – | –
